In patent publication US20130190375A1, “CARBOXAMIDES” (BAYER CROPSCIENCE AG, priority 2005, published 2013):

Test system: Phakopsora pachyrhizi
Test: Soya bean rust control test/spray application
Type: in vivo, Phakopsora pachyrhizi on soya beans (cultivar: Enrei)
Settings: active compound application rate 100 ppm; sprayed one day before inoculation; evaluated 14 days after inoculation
Description: 5 parts by weight of carboxamide of the formula (I), 142.4 parts by weight of acetone and 7.5 parts by weight of emulsifier (polyoxyethylene alkylphenyl ether) are mixed and adjusted with water to the desired concentration.
Soya beans (cultivar: Enrei) were cultivated in plastic containers having a diameter of 7.5 cm. In each case 3 containers, 6 ml of the test substance (preparation as described above) were sprayed onto the seedlings which had reached the 2.3 leaf stage. One day after spraying, the leaves were inoculated with an urediniospore suspension (1×10^5 urediniospores/ml) of Phakopsora pachyrhizi. 14 days after the inoculation, the degree of infection for each container was evaluated and the efficacy was calculated. The phytotoxicity was also monitored.

Point of comparison: `Cn1cc(C(=O)Nc2ccccc2-c2ccc(Cl)cc2)c(I)n1` [(33), N-(4′-chlorobiphenyl-2-yl)-3-iodo-1-methyl-1H-pyrazole-4-carboxamide], Efficacy in % 50%. Against it:
- Cc1nn(C)c(F)c1C(=O)Nc1ccccc1C(C)CC(C)C (stereo not shown) [(2), N-[2-(1,3-dimethylbutyl)phenyl]-5-fluoro-1,3-dimethyl-1H-pyrazole-4-carboxamide] — higher, 100%
- Cc1nc(C(F)F)c(C(=O)Nc2ccsc2CC[Si](C)(C)C)s1 [(39), 4-(difluoromethyl)-2-methyl-N-{2-[2-(trimethylsilyl)ethyl]-3-thienyl}-1,3-thiazole-5-carboxamide] — higher, 80%
- N-[3′-fluoro-4′-(trifluoromethyl)biphenyl-2-yl]-3-iodo-1-methyl-1H-pyrazole-4-carboxamide [(37)] — the same, 50%
- Cc1nn(C)c(F)c1C(=O)Nc1ccccc1CCC(C)(C)C [(36), N-[2-(3,3-dimethylbutyl)phenyl]-5-fluoro-1,3-dimethyl-1H-pyrazole-4-carboxamide] — higher, 100%
- CC(C)CC(C)c1ccccc1NC(=O)c1c(C(F)(F)F)nn(C)c1F (stereo not shown) [(5), 3-(trifluoromethyl)-N-[2-(1,3-dimethylbutyl)phenyl]-5-fluoro-1-methyl-1H-pyrazole-4-carboxamide] — higher, 80%
- Cn1cc(C(=O)Nc2ccccc2CCC(C)(C)C)c(C(F)F)n1 [(35), 3-(difluoromethyl)-N-[2-(3,3-dimethylbutyl)phenyl]-1-methyl-1H-pyrazole-4-carboxamide] — higher, 100%
- Cn1cc(C(=O)Nc2ccc(F)cc2-c2ccc(Cl)c(Cl)c2)c(C(F)F)n1 [(21), N-(3′,4′-dichloro-5-fluoro-1,1′-biphenyl-2-yl)-3-(difluoromethyl)-1-methyl-1H-pyrazole-4-carboxamide] — the same, 50%
- 3-(difluoromethyl)-N-[2-(1,3-dimethylbutyl)-4-fluorophenyl]-1-methyl-1H-pyrazole-4-carboxamide [(38)] — higher, 95%

Same assay, conditions: active compound application rate 250 ppm; sprayed one day before inoculation; evaluated 14 days after inoculation

With `Cn1cc(C(=O)Nc2ccc(F)cc2-c2ccc(Cl)c(Cl)c2)c(C(F)F)n1` [(21), N-(3′,4′-dichloro-5-fluoro-1,1′-biphenyl-2-yl)-3-(difluoromethyl)-1-methyl-1H-pyrazole-4-carboxamide] the Efficacy in % was 90%.
